Experimental data as given in patent US7432257B2, “Piperdinyl-phenoxazine and phenothiazine derivatives as δ-opioid modulators” (Janssen Pharmaceutica N.V., priority 2005, dated 2008).

Columns and labels:
delta opioid receptor = target: T1, delta opioid receptor (Rattus norvegicus, UniProt P33533); experiment: Rat Brain Delta Opioid Receptor Binding Assay; details: rat forebrain membranes; [3H]DPDPE or [3H]naltrindole, 25° C., 2.5 h
T1 construct: from tissue; host or cells: Forebrain of male Wistar rats, particulate membrane preparation
T1 sequence (P33533 whole entry): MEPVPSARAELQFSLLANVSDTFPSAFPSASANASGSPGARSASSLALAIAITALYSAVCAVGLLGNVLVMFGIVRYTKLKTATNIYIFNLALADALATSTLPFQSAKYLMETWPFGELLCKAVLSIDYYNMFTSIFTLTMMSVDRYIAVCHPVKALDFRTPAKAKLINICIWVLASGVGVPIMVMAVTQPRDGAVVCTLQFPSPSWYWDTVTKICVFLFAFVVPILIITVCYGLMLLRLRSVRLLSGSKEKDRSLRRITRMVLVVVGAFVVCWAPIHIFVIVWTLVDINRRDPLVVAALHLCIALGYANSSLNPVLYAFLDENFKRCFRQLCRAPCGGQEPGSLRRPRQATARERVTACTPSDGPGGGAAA

mu opioid receptor = target: T2, mu opioid receptor (Rattus norvegicus, UniProt P33535); experiment: Rat Brain Mu Opioid Receptor Binding Assay; details: rat forebrain membranes; [3H]DAMGO, 25° C., 2.5 h
T2 construct: from tissue; host or cells: Forebrain of male Wistar rats, particulate membrane preparation
T2 sequence (P33535 whole entry): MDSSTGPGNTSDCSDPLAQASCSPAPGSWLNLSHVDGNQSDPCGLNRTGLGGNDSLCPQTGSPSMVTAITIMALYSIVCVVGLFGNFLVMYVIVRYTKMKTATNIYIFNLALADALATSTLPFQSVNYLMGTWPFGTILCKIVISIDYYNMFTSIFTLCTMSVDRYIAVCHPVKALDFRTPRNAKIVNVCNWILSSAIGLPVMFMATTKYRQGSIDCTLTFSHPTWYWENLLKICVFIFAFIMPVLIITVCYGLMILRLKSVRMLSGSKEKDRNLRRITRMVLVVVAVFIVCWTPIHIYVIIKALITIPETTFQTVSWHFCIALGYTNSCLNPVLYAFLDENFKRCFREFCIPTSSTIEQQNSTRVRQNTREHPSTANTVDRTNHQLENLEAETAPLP

[1] = target: T3, delta opioid receptor (NG108-15 cell membranes) (Mus musculus, UniProt P32300); experiment: [35S]GTPγS Binding Assay in NG108-15 Cell Membranes (Delta Opioid); assay type: biochemical
T3 construct: NG108-15 cell membranes were purchased from Applied Cell Sciences (Rockville, Md.); host or cells: NG108-15 cell membranes (purchased)
T3 sequence (P32300 whole entry): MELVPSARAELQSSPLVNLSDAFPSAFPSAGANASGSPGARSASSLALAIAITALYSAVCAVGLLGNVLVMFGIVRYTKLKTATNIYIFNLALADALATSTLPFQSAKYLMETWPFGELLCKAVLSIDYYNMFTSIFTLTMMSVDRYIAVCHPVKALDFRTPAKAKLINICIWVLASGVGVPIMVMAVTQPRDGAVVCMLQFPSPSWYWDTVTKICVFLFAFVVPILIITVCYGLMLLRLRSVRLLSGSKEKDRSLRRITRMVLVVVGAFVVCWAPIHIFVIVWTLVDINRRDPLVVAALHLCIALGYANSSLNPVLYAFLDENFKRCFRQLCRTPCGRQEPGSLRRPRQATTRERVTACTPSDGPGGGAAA

[2] = target: hMOR (CHO-hMOR cell membranes) (Homo sapiens, UniProt P35372); experiment: [35S]GTPγS Binding Assays in CHO-hMOR Cell Membranes; assay type: biochemical; details: read-out: mu GTPγS EC50
Chain of hMOR (CHO-hMOR cell membranes) (P35372 whole entry): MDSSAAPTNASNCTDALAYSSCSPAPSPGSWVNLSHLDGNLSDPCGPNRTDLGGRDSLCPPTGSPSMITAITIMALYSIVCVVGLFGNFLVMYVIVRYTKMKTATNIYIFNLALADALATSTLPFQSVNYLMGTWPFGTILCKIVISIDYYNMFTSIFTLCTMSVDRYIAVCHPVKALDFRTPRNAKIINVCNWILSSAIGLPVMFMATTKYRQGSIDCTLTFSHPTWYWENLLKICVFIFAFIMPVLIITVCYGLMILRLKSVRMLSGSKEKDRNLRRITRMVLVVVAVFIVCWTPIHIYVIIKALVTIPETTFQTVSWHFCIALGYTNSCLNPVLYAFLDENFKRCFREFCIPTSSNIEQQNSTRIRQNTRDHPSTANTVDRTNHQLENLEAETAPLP

Row | Structure (SMILES) | Ki (delta opioid receptor) | Ki (mu opioid receptor) | EC50 [1] | EC50 [2]
1 | O=C(c1ccc2c(c1)Oc1ccccc1N2C1CCN(Cc2ccccc2)CC1)N1CC[C@H](O)C1 [Compound 13r, [10-(1-Benzyl-piperidin-4-yl)-10H-phenoxazin-3-yl]-(3-(S)-Hydroxypyrrolidin-1-yl)-methanone] | 465 nM |  |  | 
2 | CCN(CC)C(=O)c1ccc2c(c1)Oc1ccccc1N2C1CCN(Cc2nccs2)CC1 [Compound 9r, 10-(1-Thiazol-2-ylmethyl-piperidin-4-yl)-10H-phenoxazine-3-carboxylic acid diethylamide] | 300 nM |  |  | 
3 | NC(=O)c1ccc2c(c1)Oc1ccccc1N2C1CCNCC1 [Compound 12a, 10-Piperidin-4-yl-10H-phenoxazine-3-carboxylic Acid amide] | 682 nM | 1240 nM | 9250 nM | > 10000 nM
4 | c1ccc(CN2CCC(N3c4ccccc4Sc4cc(-c5cccnc5)ccc43)CC2)nc1 [Compound 2f, 3-Pyridin-3-yl-10-(1-pyridin-2-ylmethyl-piperidin-4-yl)-10H-phenothiazine] | 365 nM | 2850 nM |  | 
5 | c1ccc(CN2CCC(N3c4ccccc4Oc4cc(-c5ccncc5)ccc43)CC2)nc1 [Compound 5k, 3-Pyridin-4-yl-10-(1-pyridin-2-ylmethyl-piperidin-4-yl)-10H-phenoxazine] | 1200 nM |  |  | 
6 | CC(=O)Nc1ccccc1-c1ccc2c(c1)Oc1ccccc1N2C1CCN(Cc2ccoc2)CC1 [Compound 3j, N-{2-[10-(1-Furan-3-ylmethyl-piperidin-4-yl)-10H-phenoxazin-3-yl]-phenyl}-acetamide] | 2280 nM |  |  | 
7 | c1ccc2c(c1)Oc1cc(-c3nnn[nH]3)ccc1N2C1CCN(Cc2ncc[nH]2)CC1 [Compound 7a, 10-[1-(1H-Imidazol-2-ylmethyl)-piperidin-4-yl]-3-(1H-tetrazol-5-yl)-10H-phenoxazine] | 655 nM | 2770 nM |  | 
8 | CC(=O)Nc1ccccc1-c1ccc2c(c1)Sc1ccccc1N2C1CCN(Cc2ccccn2)CC1 [Compound 6g, N-{2-[10-(1-Pyridin-2-ylmethyl-piperidin-4-yl)-10H-phenothiazin-3-yl]-phenyl}-acetamide] | 255 nM | 837 nM |  | 
9 | O=C(c1ccc2c(c1)Oc1ccccc1N2C1CCN(Cc2ccoc2)CC1)N1CC[C@H](O)C1 [Compound 16r, [10-(1-Furan-3-ylmethyl-piperidin-4-yl)-10H-phenoxazin-3-yl]-(3-(S)-Hydroxypyrrolidin-1-yl)-methanone] | 189 nM |  |  | 
10 | Oc1cccc2c1Oc1cc(-c3ccncc3)ccc1N2C1CCNCC1 (single isomer, unassigned) [Compound 4p, 10-Piperidin-4-yl-7-pyridin-4-yl-10H-phenoxazin-4-ol] | 535 nM |  |  | 
11 | CC(=O)Nc1ccccc1-c1ccc2c(c1)Oc1ccccc1N2C1CCN(Cc2ncc[nH]2)CC1 [Compound 7j, N-(2-{10-[1-(1H-Imidazol-2-ylmethyl)-piperidin-4-yl]-10H-phenoxazin-3-yl}-phenyl)-acetamide] | 249 nM |  |  | 
12 | CCN(CC)C(=O)c1ccc2c(c1)Oc1ccccc1N2C1CCN(Cc2ccoc2)CC1 [Compound 10r, 10-(1-Furan-3-ylmethyl-piperidin-4-yl)-10H-phenoxazine-3-carboxylic acid diethylamide] | 655 nM |  |  | 
13 | N#Cc1ccc2c(c1)Oc1ccccc1N2C1CCNCC1 [Compound 11a, 10-Piperidin-4-yl-10H-phenoxazine-3-carbonitrile] | 436 nM | 5820 nM | 1930 nM | > 10000 nM
14 | CC(=O)Nc1ccccc1-c1ccc2c(c1)Oc1ccccc1N2C1CCN(Cc2ccccn2)CC1 [Compound 5j, N-{2-[10-(1-Pyridin-2-ylmethyl-piperidin-4-yl)-10H-phenoxazin-3-yl]-phenyl}-acetamide] | 576 nM |  |  | 
15 | COc1cccc2c1Oc1cc(-c3ccncc3)ccc1N2C1CCNCC1 (single isomer, unassigned) [Compound 5p, 6-Methoxy-10-piperidin-4-yl-3-pyridin-4-yl-10H-phenoxazine] | 589 nM |  |  | 
16 | CC(=O)Nc1ccccc1-c1ccc2c(c1)Oc1ccccc1N2C1CCN(Cc2ccccc2)CC1 [Compound 5h, N-{2-[10-(1-Benzyl-piperidin-4-yl)-10H-phenoxazin-3-yl]-phenyl}-acetamide] | 400 nM | 3320 nM |  | 
17 | O=C(c1ccc2c(c1)Oc1ccccc1N2C1CCN(Cc2ccccn2)CC1)N1CC[C@H](O)C1 [Compound 15r, (3-(S)-Hydroxypyrrolidin-1-yl)-[10-(1-pyridin-2-ylmethyl-piperidin-4-yl)-10H-phenoxazin-3-yl]-methanone] | 203 nM |  |  | 
18 | c1ccc(CN2CCC(N3c4ccccc4Oc4cc(-c5nnn[nH]5)ccc43)CC2)nc1 [Compound 10a, 10-(1-Pyridin-2-ylmethyl-piperidin-4-yl)-3-(1H-tetrazol-5-yl)-10H-phenoxazine] | 227 nM |  |  | 
19 | COc1cccc2c1Oc1cc(C(=O)N(C)C)ccc1N2C1CCN(Cc2ccccc2)CC1 [Compound 5d, 10-(1-Benzyl-piperidin-4-yl)-6-methoxy-10H-phenoxazine-3-carboxylic acid dimethylamide] | 374 nM |  |  | 
20 | CCNC(=O)c1ccc2c(c1)Sc1ccccc1N2C1CCN(Cc2cccs2)CC1 [Compound 4m, 10-(1-Thiophen-2-ylmethyl-piperidin-4-yl)-10H-phenothiazine-3-carboxylic acid ethylamide] | 784 nM |  |  | 
